# Assay results published in patent publication US10137122B2, “Kinase inhibitors and methods of use thereof” (priority 2012, dated 2018).
# Like-named read-outs stand apart in the source and are kept apart here.
# Tests used:
# CDK2 = CDK2 (Homo sapiens (Human), UniProt P24941); experiment: Single point inhibition at 10 μM (kinase screen), CDK2; type: biochemical
# Description: (§1) Briefly, a selection of compounds was screened against a panel of kinases at a single concentration of 10 μM. […] This was completed utilizing one of two assays depending on the kinase being examined.
# (§2) Test compounds were dissolved in and diluted with dimethylsulfoxide (DMSO) to generate a 100× sample solution. These were then diluted to 4× sample solutions in assay buffer to make the final test compound solutions. Reference compounds for assay control were prepared similarly.
# (§3) A solution of IMAP binding reagent (IMAP Screening Express kit; Molecular Devices) (60 μL) was added to each well and incubated for 30 minutes.
# (§4) A solution of termination buffer (QuickScout Screening assist MSA; Carna Biosciences) (60 μL) was added to each well. The entire reaction mixture was then applied to a LabChip3000 system (Caliper Life Science) and the product and substrate peptide peaks were separated and quantified.
# CDK5 = CDK5 (Homo sapiens (Human), UniProt Q00535); experiment: Single point inhibition at 10 μM (Carna), CDK5; type: biochemical
# Description: (§5) Single Point Inhibitory Analysis of Selected Compounds (Carna Biosciences)
# as §1, §2, §3, §4
# [1] = system: β-catenin nuclear translocation in U2-OS cells; experiment: β-Catenin nuclear localization assay; type: cell-based; settings: Homo sapiens, U2OS, read-out: beta-Catenin translocation EC50
# Description: β-Catenin Nuclear Localization Assay
# U2-OS cells stably expressing two complimentary β-galactosidase fragments (one part on β-Catenin and the other constitutively expressed in the cell nucleus) were maintained in DMEM F12 supplemented with 10% FBS. When β-catenin translocates to the nucleus, the complimentary fragments form a complete β-galactosidase, the amount of which is then quantified by β-galactosidase activity (DiscoveRx). Cells were seeded in a 384-well CulturPlate (Perkin Elmer, Boston, Mass.) with 10,000 per well in 20 μL DMEM F12 containing 10% FCS, 100 U/ml penicillin and 100 μg/mL streptomycin. After overnight incubation at 37° C., cells were stimulated with 100 nL test compound/well and then returned to the incubator for 6 h. Cells were disrupted using 12 μL substrate-containing lysis buffer from the PathHunter Detection Kit in the formulation specified by the supplier (DiscoveRx). Plates were incubated in the dark for 1 h at room temperature before measurement of β-galactosidase activity (luminescence) on an EnVision plate reader (PerkinElmer, Waltham, Mass.).
# RSK3 = RSK3 (Homo sapiens (Human), UniProt Q15349); experiment: Single point inhibition at 10 μM (Carna), RSK3; type: biochemical
# Description: as §5, §1, §2, §3, §4
# PKR = PKR (Homo sapiens (Human), UniProt P19525); experiment: Single point inhibition at 10 μM (Carna), PKR; type: biochemical
# Description: as §5, §1, §2, §3, §4
# [2] = system: TCF/LEF reporter in HEK293-pBARL cells; experiment: cells; settings: Homo sapiens
# Description: (§6) HEK293-pBARL cells were derived from HEK293 cells and they stably expressed a firefly-luciferase reporter gene driven by a promoter containing 12 copies of TCF/LEF binding sequences. These cells were maintained in DMEM and supplemented with 10% FBS and 1% penicillin-streptomycin (Invitrogen). Reporter gene assays were conducted in anti-biotic free media. […] These cells also contained a renilla-luciferase reporter gene driven by the ubiquitous EF1α promoter as a control. HEK293-pBarl reporter cell lines were seeded into 384-well culture plates (Corning) at 6000 cells/well. 24 hours after plating, cells were treated overnight with relevant compounds and assayed using DualGlo assay kit (Promega). Luminescent intensities were read by EnVision (PerkinElmer, Waltham, Mass.). Firefly luciferase intensity is normalized by renilla luciferase intensity.
# (§7) Cells were cultured in 384 well plates to appropriate density (40 μl total plating volume). 24 hours after plating, cells were treated with 100 nl compounds. 24 hours after incubation with compounds (48 hours after plating), assay reagents were prepared by mixing Luciferase Assay solution with Luciferase substrate and Stop & Glo solution to Stop & Glo substrate (extra reagents can be aliquoted and frozen for future use and are stable for at least one freeze/thaw cycle). […] The plate was spun down and 10 minutes were allowed for signal stabilization. Luciferase signal on the Perkin Elmer EnVision using the following parameters: Distance between plate & detector (mm)=0.2; Measurement time(s)=0.1; Glow (CT2) correction factor=0. Once the initial data is secure, a volume of Stop & Glo was added equal to each well equal to the volume of Luciferase reagent added above (If 10 μl Luciferase Reagent was added, 10 μl Stop & Glo was also added). The plate was spun down and 10 minutes were allowed for signal stabilization. The plate was read on the EnVision using the same parameters detailed above.
# CDK2/CycE1 = CDK2/CycE1 (Homo sapiens (Human), UniProt P24941); experiment: Single point inhibition at 10 μM (Carna), CDK2/CycE1; type: biochemical
# Description: as §1, §2, §3, §4
# CK1g3 = CK1g3 (Homo sapiens (Human), UniProt Q9Y6M4); experiment: Single point inhibition at 10 μM (Carna), CK1g3; type: biochemical
# CK1g3, sequence (Q9Y6M4 whole entry): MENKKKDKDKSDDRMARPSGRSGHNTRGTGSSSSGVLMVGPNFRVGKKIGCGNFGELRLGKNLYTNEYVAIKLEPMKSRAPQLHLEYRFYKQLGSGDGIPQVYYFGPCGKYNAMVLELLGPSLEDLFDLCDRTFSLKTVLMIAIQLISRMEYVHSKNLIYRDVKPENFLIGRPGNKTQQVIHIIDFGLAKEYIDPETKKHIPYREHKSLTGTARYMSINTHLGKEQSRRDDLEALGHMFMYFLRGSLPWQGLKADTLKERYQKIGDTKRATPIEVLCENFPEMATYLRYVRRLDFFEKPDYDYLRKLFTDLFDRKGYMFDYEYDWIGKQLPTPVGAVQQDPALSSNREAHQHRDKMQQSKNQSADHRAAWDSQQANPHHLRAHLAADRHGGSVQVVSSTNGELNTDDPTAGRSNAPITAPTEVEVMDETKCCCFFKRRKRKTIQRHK
# Description: as §1, §2, §3, §4
# CK1g1 = CK1g1 (Homo sapiens (Human), UniProt Q9HCP0); experiment: Single point inhibition at 10 μM (Carna), CK1g1; type: biochemical
# CK1g1, sequence (Q9HCP0 whole entry): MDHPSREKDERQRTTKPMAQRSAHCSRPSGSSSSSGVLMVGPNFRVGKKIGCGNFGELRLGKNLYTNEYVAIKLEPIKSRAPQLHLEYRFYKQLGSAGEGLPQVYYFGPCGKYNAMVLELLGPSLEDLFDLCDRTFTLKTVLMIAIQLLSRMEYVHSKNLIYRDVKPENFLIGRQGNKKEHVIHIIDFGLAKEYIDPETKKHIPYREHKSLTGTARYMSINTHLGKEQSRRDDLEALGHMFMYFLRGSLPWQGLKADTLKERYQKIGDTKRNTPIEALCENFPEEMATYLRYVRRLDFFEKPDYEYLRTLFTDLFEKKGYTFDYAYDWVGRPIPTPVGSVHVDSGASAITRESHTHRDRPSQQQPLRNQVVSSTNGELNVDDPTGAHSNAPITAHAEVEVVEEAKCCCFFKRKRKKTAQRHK
# Description: as §1, §2, §3, §4
# DYKR1B = DYKR1B (Homo sapiens (Human), UniProt Q9Y463); experiment: Single point inhibition at 10 μM (Carna), DYKR1B; type: biochemical
# DYKR1B, sequence (Q9Y463 whole entry): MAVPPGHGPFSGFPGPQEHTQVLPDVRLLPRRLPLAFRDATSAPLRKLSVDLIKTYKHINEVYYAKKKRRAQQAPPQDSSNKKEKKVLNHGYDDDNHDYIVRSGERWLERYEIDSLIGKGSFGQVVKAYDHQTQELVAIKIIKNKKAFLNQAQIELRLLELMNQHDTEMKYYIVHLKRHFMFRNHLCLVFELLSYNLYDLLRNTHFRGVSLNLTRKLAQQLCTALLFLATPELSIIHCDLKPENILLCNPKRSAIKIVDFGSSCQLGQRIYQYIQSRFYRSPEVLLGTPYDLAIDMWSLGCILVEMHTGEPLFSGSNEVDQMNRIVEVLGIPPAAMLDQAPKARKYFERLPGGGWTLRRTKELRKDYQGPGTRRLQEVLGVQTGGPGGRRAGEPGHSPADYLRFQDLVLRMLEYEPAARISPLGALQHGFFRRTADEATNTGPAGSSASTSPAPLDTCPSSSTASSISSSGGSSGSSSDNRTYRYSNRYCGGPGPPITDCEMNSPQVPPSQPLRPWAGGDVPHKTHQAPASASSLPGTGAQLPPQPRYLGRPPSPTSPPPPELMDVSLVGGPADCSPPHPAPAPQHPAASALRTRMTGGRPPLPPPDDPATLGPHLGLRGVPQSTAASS
# Description: as §1, §2, §3, §4
# GSK3β [3] = target: T1, GSK3β (Homo sapiens (Human), UniProt P49841); experiment: biochemical; settings: read-out: % Inhibition at 10 μM, GSK3β
# T1 sequence (P49841 whole entry): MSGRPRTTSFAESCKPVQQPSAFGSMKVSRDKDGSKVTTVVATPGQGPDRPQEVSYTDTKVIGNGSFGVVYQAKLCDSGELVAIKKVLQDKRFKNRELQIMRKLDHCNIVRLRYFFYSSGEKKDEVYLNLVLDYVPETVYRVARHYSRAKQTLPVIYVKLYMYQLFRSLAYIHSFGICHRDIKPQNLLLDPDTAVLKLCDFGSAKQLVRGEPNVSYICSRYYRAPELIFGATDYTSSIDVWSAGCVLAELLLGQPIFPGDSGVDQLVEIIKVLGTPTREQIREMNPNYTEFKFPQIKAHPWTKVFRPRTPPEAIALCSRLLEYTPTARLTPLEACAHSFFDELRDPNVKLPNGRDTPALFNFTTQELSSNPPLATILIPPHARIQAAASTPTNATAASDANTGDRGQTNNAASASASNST
# Description: as §1, §2, §3, §4
# CDK4 = CDK4 (Homo sapiens (Human), UniProt P11802); experiment: Single point inhibition at 10 μM (Carna), CDK4; type: biochemical
# Description: as §1, §2, §3, §4
# MELK = MELK (Homo sapiens (Human), UniProt Q14680); experiment: Single point inhibition at 10 μM (Carna), MELK; type: biochemical
# MELK, sequence (Q14680 whole entry): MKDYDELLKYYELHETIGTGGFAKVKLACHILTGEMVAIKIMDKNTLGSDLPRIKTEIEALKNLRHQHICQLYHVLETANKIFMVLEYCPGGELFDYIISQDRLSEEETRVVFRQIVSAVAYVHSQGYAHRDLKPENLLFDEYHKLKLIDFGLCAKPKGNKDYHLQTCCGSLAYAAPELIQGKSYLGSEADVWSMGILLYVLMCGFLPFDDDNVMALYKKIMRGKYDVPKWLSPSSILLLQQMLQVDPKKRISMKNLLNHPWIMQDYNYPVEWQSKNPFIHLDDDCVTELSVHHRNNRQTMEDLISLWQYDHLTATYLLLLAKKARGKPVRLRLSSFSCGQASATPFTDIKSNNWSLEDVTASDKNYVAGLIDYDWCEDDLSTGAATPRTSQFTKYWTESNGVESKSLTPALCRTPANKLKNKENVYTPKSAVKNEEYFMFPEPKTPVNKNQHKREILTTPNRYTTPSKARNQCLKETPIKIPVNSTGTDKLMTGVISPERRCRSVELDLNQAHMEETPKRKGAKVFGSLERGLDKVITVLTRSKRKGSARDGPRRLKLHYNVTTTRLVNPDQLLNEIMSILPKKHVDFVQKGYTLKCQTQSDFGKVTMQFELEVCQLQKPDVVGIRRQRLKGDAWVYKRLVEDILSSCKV
# Description: as §5, §1, §2, §3, §4
# Erk5 = Erk5 (Homo sapiens (Human), UniProt Q13164); experiment: Single point inhibition at 10 μM (Carna), Erk5; type: biochemical
# Erk5, sequence (Q13164 whole entry): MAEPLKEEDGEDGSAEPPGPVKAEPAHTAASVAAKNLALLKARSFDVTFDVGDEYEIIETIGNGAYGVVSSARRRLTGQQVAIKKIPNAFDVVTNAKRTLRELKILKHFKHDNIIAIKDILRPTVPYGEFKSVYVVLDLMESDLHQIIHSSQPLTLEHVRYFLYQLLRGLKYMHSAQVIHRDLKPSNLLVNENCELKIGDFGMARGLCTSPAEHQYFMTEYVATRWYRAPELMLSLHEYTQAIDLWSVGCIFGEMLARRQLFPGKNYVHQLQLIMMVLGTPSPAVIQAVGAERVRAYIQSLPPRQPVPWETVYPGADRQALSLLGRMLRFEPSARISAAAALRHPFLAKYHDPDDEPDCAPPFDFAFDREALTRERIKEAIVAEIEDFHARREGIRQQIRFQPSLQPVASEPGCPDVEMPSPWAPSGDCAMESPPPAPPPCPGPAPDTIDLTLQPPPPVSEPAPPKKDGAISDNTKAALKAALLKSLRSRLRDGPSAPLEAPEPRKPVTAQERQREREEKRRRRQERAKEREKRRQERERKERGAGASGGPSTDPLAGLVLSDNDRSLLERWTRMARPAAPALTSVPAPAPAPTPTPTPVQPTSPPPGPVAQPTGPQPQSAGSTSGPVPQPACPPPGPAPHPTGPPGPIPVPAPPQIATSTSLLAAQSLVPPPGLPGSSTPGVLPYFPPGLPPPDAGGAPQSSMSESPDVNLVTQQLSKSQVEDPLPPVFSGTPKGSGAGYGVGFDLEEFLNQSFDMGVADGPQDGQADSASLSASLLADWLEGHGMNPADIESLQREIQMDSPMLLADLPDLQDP
# Description: as §5, §1, §2, §3, §4
# [4] = M (mouse)
# BRAF = BRAF (Homo sapiens (Human), UniProt P15056); experiment: Single point inhibition at 10 μM (Carna), BRAF; type: biochemical
# Description: as §1, §2, §3, §4
# MAP2K6 = MAP2K6 (Homo sapiens (Human), UniProt P52564); experiment: Single point inhibition at 10 μM (Carna), MAP2K6; type: biochemical
# Description: as §5, §1, §2, §3, §4
# MLK3 = MLK3 (Homo sapiens (Human), UniProt Q16584); experiment: Single point inhibition at 10 μM (Carna), MLK3; type: biochemical
# MLK3, sequence (Q16584 whole entry): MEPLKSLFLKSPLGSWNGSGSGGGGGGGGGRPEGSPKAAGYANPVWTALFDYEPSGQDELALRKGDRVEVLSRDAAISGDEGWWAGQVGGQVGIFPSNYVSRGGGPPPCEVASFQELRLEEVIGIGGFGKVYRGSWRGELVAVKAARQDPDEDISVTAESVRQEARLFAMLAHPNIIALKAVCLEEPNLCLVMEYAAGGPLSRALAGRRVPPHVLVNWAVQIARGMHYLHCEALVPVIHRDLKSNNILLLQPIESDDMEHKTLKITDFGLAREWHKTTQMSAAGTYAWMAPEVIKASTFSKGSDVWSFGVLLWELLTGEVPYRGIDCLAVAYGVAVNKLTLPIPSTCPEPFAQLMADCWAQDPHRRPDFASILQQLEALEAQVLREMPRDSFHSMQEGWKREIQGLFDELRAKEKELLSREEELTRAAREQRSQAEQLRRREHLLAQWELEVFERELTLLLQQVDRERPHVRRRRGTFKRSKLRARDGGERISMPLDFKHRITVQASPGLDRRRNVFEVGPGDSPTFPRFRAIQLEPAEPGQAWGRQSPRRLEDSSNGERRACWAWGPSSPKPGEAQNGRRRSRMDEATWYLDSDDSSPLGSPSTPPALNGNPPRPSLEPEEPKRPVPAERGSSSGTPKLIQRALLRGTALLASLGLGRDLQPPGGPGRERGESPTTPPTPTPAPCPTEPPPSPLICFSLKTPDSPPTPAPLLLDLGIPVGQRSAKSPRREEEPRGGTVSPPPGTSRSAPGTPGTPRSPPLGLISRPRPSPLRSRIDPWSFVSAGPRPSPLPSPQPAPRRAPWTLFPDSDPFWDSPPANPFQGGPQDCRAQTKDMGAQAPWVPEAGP
# Description: as §5, §1, §2, §3, §4
# panel of 311 kinases = experiment: Single point kinome-wide profile (Carna Biosciences); type: biochemical; settings: for number of kinases inhibited greater than 50% at 10 μM: panel of 311 kinases
# Description: as §1, §2, §3, §4
# GSK3α [5] = target: T2, GSK3α (Homo sapiens (Human), UniProt P49840); experiment: biochemical; settings: read-out: % Inhibition at 10 μM, GSK3α
# T2 sequence (P49840 whole entry): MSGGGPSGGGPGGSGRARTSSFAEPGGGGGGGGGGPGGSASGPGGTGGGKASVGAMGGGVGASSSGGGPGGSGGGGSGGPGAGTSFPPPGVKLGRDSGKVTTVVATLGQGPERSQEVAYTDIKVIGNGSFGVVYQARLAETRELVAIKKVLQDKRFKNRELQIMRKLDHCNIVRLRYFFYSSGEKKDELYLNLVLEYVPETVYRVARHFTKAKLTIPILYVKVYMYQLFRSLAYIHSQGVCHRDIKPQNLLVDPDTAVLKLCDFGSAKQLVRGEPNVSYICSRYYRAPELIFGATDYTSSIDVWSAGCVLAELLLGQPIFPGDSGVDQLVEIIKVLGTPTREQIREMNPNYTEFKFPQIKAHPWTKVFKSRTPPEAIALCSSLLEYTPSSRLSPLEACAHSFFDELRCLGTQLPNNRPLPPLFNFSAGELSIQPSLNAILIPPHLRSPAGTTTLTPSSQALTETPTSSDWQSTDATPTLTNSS
# Description: as §1, §2, §3, §4
# HIPK4 = HIPK4 (Homo sapiens (Human), UniProt Q8NE63); experiment: Single point inhibition at 10 μM (Carna), HIPK4; type: biochemical
# Description: as §5, §1, §2, §3, §4
# CLK1 = CLK1 (Homo sapiens (Human), UniProt P49759); experiment: Single point inhibition at 10 μM (kinase screen), CLK1; type: biochemical
# Description: as §1, §2, §3, §4
# PLK1 = PLK1 (Homo sapiens (Human), UniProt P53350); experiment: Single point inhibition at 10 μM (Carna), PLK1; type: biochemical
# Description: as §5, §1, §2, §3, §4
# CDK2/CycA2 = CDK2/CycA2 (Homo sapiens (Human), UniProt P24941); experiment: Single point inhibition at 10 μM (Carna), CDK2/CycA2; type: biochemical
# Description: as §1, §2, §3, §4
# [6] = system: phospho-Tau (Ser199) in SH-SY5Y cells; experiment: Tau phosphorylation assay (phospho-Tau Ser199 ELISA); type: cell-based, human; settings: Homo sapiens
# Description: Tau Phosphorylation and Total Tau Assay
# SH-SY5Y cells were maintained in DMEM supplemented with 10% heat-inactivated FBS and 1% penicillin-streptomycin (Invitrogen) unless otherwise stated. ELISA kits for phospho-Tau (Ser199) and total Tau detection were purchased from Invitrogen (KHB0041, and KHB7041 respectively). Briefly, SH-SY5Y cells were seeded at 50,000 cells/200 μL/well in 96 well plates and after overnight incubation, treated with various doses of chemical compounds at 0.2 μL/well. The next day cells were washed with PBS twice before being lysed in 100 μL Lysis buffer/well. 50 μL of cell lysate of each sample was transferred to an ELISA vial coated with the capture antibody, and the mixture was incubated at room temperature for 2 hours, before the supernatant was aspired, and each vial washed four times. 100 μL of detection antibody was then added to each well, incubated for 1 hour, and then washed four times. […] Data were scaled using the positive and neutral controls and fitted for IC50.
# A standard protocol using an immunoassay kit to quantify total Tau protein and phospho-Tau (Ser199) protein in SH-SY5Y human neuroblastoma cells was employed. Human Tau (Total) ELISA kit (#KHB0041) and human phosphor-Tau (Ser199) ELISA kit were purchased from Invitrogen (#KHB7041)
# 50,000 cells were seeded in 200 μl per well in cell culture media (250,000 cells/ml). Cells were incubated overnight @37° C. Cells were induced with appropriate doses of inhibitors and incubated for approximately 24 hrs @37° C. Cell lysates were harvested by washing cells once with cold PBS and adding 100 μl cold lysis buffer and pipette up and down vigorously. Lysate was transferred to 96 well PCR plate and centrifuged at 4,000 rpm for 20 minutes at 4° C.
# Well strips were warmed and inserted into the frame. 100μ of standard diluent buffer were loaded into ZERO wells, and 100 ul of each standard concentrations (both total Tau and pTau) were loaded into wells in duplicate. Samples were loaded to each well that would be analyzed for total Tau, 85 μl standard diluent buffer and 15 μl cell lysate were added. To each well that will be analyzed for pTau (Ser199) 50 μl standard diluent buffer+50 μl cell lysate were added. Plates were tapped gently on the side to mix. Certain wells were left empty for chromogen blank. Plates were covered and incubated for 2 hours at room temperature. Wells were aspirated 4 times (400 μl diluted wash buffer, left for 30 seconds, aspirated all wells; alternatively used automated plate washer and programmed in a 30 second hold between each cycle). 100 μl of detection antibody solution were added to each well except chromogen blanks. Anti-total Tau was added to wells being analyzed for total Tau, anti-pTau (Ser199) was added to wells being analyzed for pTau (Ser199), and plates were tapped gently on the side to mix. Plates were covered and incubated for 1 hour at room temperature, then wells were aspirated and washed 4 times as described above. 100 μl of anti-rabbit IgG HRP working solution (prepared ahead) were added to each well except chromogen blanks, and plates were covered and incubated for 30 minutes at room temperature, then wells were aspirated and washed 4 times as described above. 100 μl of stabilized chromogen were added to each well (the liquid turned blue). Plates were incubates for 30 minutes at room temperature in the dark, then 100 μl of stop solution were added to each well, and plates were tapped gently on the side to mix. Absorbance of each well was read at 450 nm (within 2 hours of adding stop solution).
# GSK3 = settings: read-out: GSK3 IC50 of lithium; cited from earlier work
# GSK3β [7] = target: T1, GSK3β
# Description: GSK3β Microfluidic Mobility-Shift Assay
# (§8) Reactions were terminated by the addition of 10 mM EDTA. Substrate and product were separated electrophoretically and fluorescence intensity of the substrate and product was determined by Labchip EZ Reader II (Caliper Life Sciences, MA). The kinase activity was measured as percent conversion. The reactions were performed in duplicate for each sample. […] The results were analyzed by Genedata Assay Analyzer. The percent inhibition was plotted against the compound concentration and the IC50 value was determined from the logistic dose-response curve fitting.
# [8] = system: TCF/LEF reporter in HEK293-pBARL cells; settings: read-out: TCF/LEF EC50
# Description: as §6, §7
# GSK3β [9] = target: T1, GSK3β; remark: listed apart in the source
# Description: Human GSK3β as a GST fusion expressed in baculoviral system was purchased from BPS Bioscience (San Diego, Calif.). […] Reactions were incubated at room temperature for 60 minutes. 2.5 μL/well of ADP-Glo (Promega, V9103) was added with BioRAPTR, and incubated at room temperature for 40 minutes followed by addition of 5 μL/well of ADP-Glo detection reagent (Promega, V9103) with Combi nL (Thermo, Waltham, Mass.) and incubation at room temperature for 30 minutes. The plates were read on a ViewLux (PerkinElmer, Waltham, Mass.) for luminescence. Data were scaled using the positive and neutral controls and fitted for IC50 as described below.
# ADP Glo Assay Protocol (10 μM ATP) in 384-Well Format
# 100 nL/well compounds were pinned. […] Incubated at room temperature for 60 minutes. Added 20 μL/well of ADP-glo (Promega, V9103) with Combi, and incubated at room temperature for 40 minutes. Added 40 μL/well of ADP-glo (Promega, V9103) with Combi, incubated at room temperature for 30 minutes. Read on Envision for luminescence.
# GSK3α [10] = target: T2, GSK3α
# Description: GSK3β Microfluidic Mobility-Shift Assay
# as §8
# GSH stability = type: in vitro ADME; settings: glutathione, 48 hours
# Description: Stability was determined in the presence of PBS pH […] and 50 μM glutathione with 0.1% DMSO. Each compound was prepared in duplicate on six separate plates and allowed to equilibrate at room temperature with a 250 rpm orbital shake for 48 hours. One plate was removed at each time point (0, 2, 4, 8, 24, and 48 hours). […] Additionally, to the remaining material at each time point, acetonitrile was added to force dissolution of compound (to test for recovery of compound). An aliquot of this was also analyzed by UPLC-MS.
# LIMK1 = LIMK1 (Homo sapiens (Human), UniProt P53667); experiment: Single point inhibition at 10 μM (Carna), LIMK1; type: biochemical
# Description: as §1, §2, §3, §4
# CDK9 = CDK9 (Homo sapiens (Human), UniProt P50750); experiment: Single point inhibition at 10 μM (Carna), CDK9; type: biochemical
# Description: as §5, §1, §2, §3, §4
# PBS stability = type: physicochemical; settings: 48 hours of incubation, acetonitrile recovery
# Description: Stability was determined in the presence of PBS pH 7.4 with 0.1% DMSO. Each compound was prepared in duplicate on six separate plates and allowed to equilibrate at room temperature with a 250 rpm orbital shake for 48 hours. One plate was removed at each time point (0, 2, 4, 8, 24, and 48 hours). […] Additionally, to the remaining material at each time point, acetonitrile was added to force dissolution of compound (to test for recovery of compound). An aliquot of this was also analyzed by UPLC-MS.
# [11] = system: amphetamine-induced hyperactivity; experiment: Amphetamine-induced hyperactivity (AIH) in vivo; settings: mice, intracerebroventricular, vs vehicle
# [12] = system: human iPSC-NPCs with TCF/LEF-luciferase reporter; experiment: Neurogenesis assay; type: cell-based; settings: 24-h treatment
# Text: See, e.g., Zhao et al., J Biomol Screen. 2012 October; 17(9):1252-63.
SMILES,inhibition at 10 µM (CDK5) [%],EC50 [1] [µM],inhibition at 10 µM (RSK3) [%],inhibition at 10 µM (PKR) [%],inhibition at 10 µM (CK1g3) [%],inhibition at 10 µM (CK1g1) [%],inhibition at 10 µM (DYKR1B) [%],inhibition at 10 µM (GSK3β [3]) [%],inhibition at 10 µM (CDK4) [%],inhibition at 10 µM (MELK) [%],inhibition at 10 µM (Erk5) [%],Microsomal Stability [4],inhibition at 10 µM (BRAF) [%],inhibition at 10 µM (MAP2K6) [%],inhibition at 10 µM (MLK3) [%],number of kinases inhibited greater than 50% at 10 μM (panel of 311 kinases) [kinases],inhibition at 10 µM (GSK3α [5]) [%],inhibition at 10 µM (HIPK4) [%],inhibition at 10 µM (PLK1) [%],EC50 [8] [µM],other results
"Cc1c[nH]c(-c2cnc(NCCNc3ccc(C#N)cn3)nc2-c2ccc(Cl)cc2Cl)n1 [CHIR99021, reference compound]",> 50,10,53.6,57.1,70.5,85.8,70.5,99.9,65.3,53.5,> 50,M: 4%,53.8,65.3,52.7,21,99.9,55.5,> 50,,"inhibition at 10 µM (CDK2): > 50%; EC50 ([2]; HEK293, read-out: TCF/LEF EC50 (μM)): 6 µM; inhibition at 10 µM (CDK2/CycE1): 67.2%; inhibition at 10 µM (CLK1): > 50%; inhibition at 10 µM (CDK2/CycA2): 79.3%; IC50 ([6]; read-out: Phospho-Tau ELISA in SHSY5Y Cells (IC50)): 0.44 µM"
[Li+] [Li^+],,,,,,,,,,,,,,,,,,,,,IC50 (GSK3): 2000 µM
CC1(C)CC(=O)C2=C(C1)Nc1n[nH]c(C(F)(F)F)c1[C@@H]2c1c(F)cccc1F [Compound 59],,,,,,,,,,,,,,,,,,,,> 25,IC50 (GSK3β [7]): < 0.1 µM; IC50 (GSK3β [9]): < 0.1 µM; IC50 (GSK3α [10]): 0.101 to 1 µM
"COc1ccccc1[C@@H]1C2=C(CC(C)(C)CC2=O)Nc2n[nH]c(C(F)(F)F)c21 [Compound 54, (R)-4-(2-methoxyphenyl)-7,7-dimethyl-3-(trifluoromethyl)-6,7,8,9-tetrahydro-2H-pyrazolo[3,4-b]quinolin-5(4H)-one]",86.7,5,0.1,0.1,3.2,0.5,52.5,99.9,19,4.5,0.6,M: 0%,10.8,0.1,18.8,,99.9,3.2,21.3,4.8,"GSH stability, % remaining (GSH stability): 99%; inhibition at 10 µM (LIMK1): 6.7%; EC50 ([2]; HEK293, read-out: TCF/LEF EC50 (μM), HEK293 reporter cells): 5 µM; inhibition at 10 µM (CDK9): 20.5%; % of the kinome (311 kinases) inhibited (panel of 311 kinases; 10 μM, 311 kinases): 2.6%; EC50 ([6]; read-out: p-Tau Inhibition ELISA EC50 SH-SY5Y): 1.7 µM; PBS stability, % still present (PBS stability): more than 95%"
"COc1ccccc1[C@@H]1C2=C(CC(C)(C)CC2=O)Nc2n[nH]c(C)c21 [Compound 22, 4-(2-methoxyphenyl)-3,7,7-trimethyl-6,7,8,9-tetrahydro-1H-pyrazolo[3,4-b]quinolin-5(4H)-one]",,,,,,,,,,,,,,,,8,,,,,"effect on amphetamine-induced hyperactivity, ICV injection [11]: attenuate amphetamine-induced hyperactivity; neurogenesis [12]: promoted neurogenesis"
